According to US10647680B2, “Urea compound, preparation method therefor and medical use thereof” (Ancureall Pharmaceutical (Shanghai) Co., Ltd., priority 2016, dated 2020):
pIC50: −log10 of the molar value.

Assays:
Type in all cases: in vitro ADME
Details in all cases: human liver microsomes
[1] = target: T1, CYP3A4-T (Homo sapiens, UniProt P08684); assay: P450 enzyme inhibition, CYP3A4-T (Testosterone)
T1 construct: human liver microsomes (BD Gentest) (0.5 mg/mL); tissue BD Gentest; host or cells: human liver microsomes
T1 sequence (P08684 whole entry): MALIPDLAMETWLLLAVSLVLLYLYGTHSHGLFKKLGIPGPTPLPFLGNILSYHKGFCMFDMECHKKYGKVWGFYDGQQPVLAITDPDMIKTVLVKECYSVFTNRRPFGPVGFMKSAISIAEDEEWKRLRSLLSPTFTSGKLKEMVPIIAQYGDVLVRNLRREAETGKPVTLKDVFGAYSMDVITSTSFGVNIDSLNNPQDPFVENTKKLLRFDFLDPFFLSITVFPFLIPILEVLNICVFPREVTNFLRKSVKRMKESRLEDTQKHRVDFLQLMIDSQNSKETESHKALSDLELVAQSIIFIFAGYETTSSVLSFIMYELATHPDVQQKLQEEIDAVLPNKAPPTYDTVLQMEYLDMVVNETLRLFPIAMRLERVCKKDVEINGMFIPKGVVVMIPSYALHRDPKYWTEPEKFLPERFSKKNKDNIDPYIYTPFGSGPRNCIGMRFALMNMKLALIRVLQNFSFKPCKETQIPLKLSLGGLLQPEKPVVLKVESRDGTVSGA
Method: (§1) Eight cytochrome p450 enzyme inhibition reactions of human liver microsomes were performed using compound 77 of the present invention as a representative example.
(§2) The main reaction systems and processes: in 37° C. water bath, the test compounds (7 concentrations, 0, 0.25, 0.5, 5, 10, 25, and 50 uM; the final methanol concentration was 1% in the system), human liver microsomes (BD Gentest) (0.5 mg/mL) and reducing coenzyme II (Roche 10621706001) (1 mg/mL) and the corresponding cytochrome p450 enzyme probe substrate were co-incubated for 5 to 20 minutes. Among them, (1) the probe substrate for CYP1A2 was Phenacetin ([…]) (Sigma), and the selective inhibitor alpha-naphthoflavone (2 uM) (Sigma) was for parallel detection as positive control, and they were incubated for 20 minutes. (2) The probe substrate for CYP2b6 was Bupropion (40 uM) (Sigma) and the selective inhibitor Ticlopidine (10 uM) (Sigma) was for parallel detection as positive control, and they were incubated for 20 minutes. (3) The probe substrate of CYP2C8 was Amodiaquine (1 uM) (Sigma), and the selective inhibitor Montelukast (10 uM) (Sigma) was for parallel detection as positive control, and they were incubated for 20 minutes. (4) The probe substrate for CYP2C9 was Diclofenac (2.5 uM) (Sigma), and the selective inhibitor Sulphaphenazole (10 uM) (Sigma) was for parallel detection as positive control, and they were incubated for 20 minutes. (5) The probe substrate for CYP2C19 was Mephenytoin (40 uM) (Sigma), and the selective inhibitor Ticlopidine (10 uM) (Sigma) was for parallel detection as positive control, and they were incubated for 20 minutes. (6) The probe substrate for CYP2D6 was Dextromethorphan (5 uM) (Sigma), and the selective inhibitor Quinidine (10 uM) (Sigma) was for parallel detection as positive control, and they were incubated for 20 minutes. (7) The probe substrates for CYP3A4-T and CYP3A4-M were Testosterone (5 uM) (Sigma) and Midazolam (5 uM) (Sigma), respectively, and the selective inhibitor was Ketoconazole (1 uM) (Sigma), they were detected in parallel as positive control, and incubated for 5 minutes. The reaction system was quenched by adding methanol containing the corresponding internal standard. The internal standard compound was Tolbutamide (Sigma). The concentration of the corresponding metabolites was determined by LC/MS/MS. For the data analysis, the decrease in peak area of the metabolite of the sample after addition of compound 77 relative to the peak area of the metabolite of the solvent control sample was used to calculate the IC50 (concentration of the test substance at 50% inhibition). The percentages of peak areas of metabolites of CYP1A2, CYP2B6, CYP2C8, CYP2C9, 15CYP2C19, CYP2D6, CYP3A4-T, and CYP3A4-M probe substrates after addition of different concentrations of compound 77 and selective inhibitors relative to the solvent control peak areas were shown in the Table 7.

[2] = target: T2, CYP3A4-M (Homo sapiens, UniProt P08684); assay: P450 enzyme inhibition, CYP3A4-M (Midazolam)
T2 construct: human liver microsomes (BD Gentest) (0.5 mg/mL); tissue BD Gentest; host or cells: human liver microsomes
T2 sequence (P08684 whole entry): as above
Method: as §1, §2

[3] = target: T3, CYP2C8 (Homo sapiens, UniProt P10632); assay: P450 enzyme inhibition, CYP2C8
T3 construct: human liver microsomes (BD Gentest) (0.5 mg/mL); tissue BD Gentest; host or cells: human liver microsomes
T3 sequence (P10632 1-490): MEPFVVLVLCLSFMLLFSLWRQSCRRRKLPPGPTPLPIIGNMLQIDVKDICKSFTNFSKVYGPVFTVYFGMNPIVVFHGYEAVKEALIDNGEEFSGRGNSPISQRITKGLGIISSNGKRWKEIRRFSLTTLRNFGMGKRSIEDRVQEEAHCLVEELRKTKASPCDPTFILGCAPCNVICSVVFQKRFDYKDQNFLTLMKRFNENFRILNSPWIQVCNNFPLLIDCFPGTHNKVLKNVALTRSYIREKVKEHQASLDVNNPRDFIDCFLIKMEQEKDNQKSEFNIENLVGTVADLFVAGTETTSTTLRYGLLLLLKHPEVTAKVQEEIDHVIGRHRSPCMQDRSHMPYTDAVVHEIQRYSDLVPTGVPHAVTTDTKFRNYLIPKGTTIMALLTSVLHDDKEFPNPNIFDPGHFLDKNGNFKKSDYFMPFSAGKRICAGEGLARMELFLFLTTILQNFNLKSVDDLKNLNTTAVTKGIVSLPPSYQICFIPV
Method: as §1, §2

## COCCOc1ccc2c(c1)ncn2-c1ccc(NC(=O)Nc2cc(C(C)(C)C)n[nH]2)cc1 [Compound 77, 1-(5-tert-butyl-2H-pyrazol-3-yl)-3-{4-[5-(2-methoxyl-ethoxyl)-benzimidazol-1-yl]-phenyl}-urea]
[1]; Concentration 0.25 uM
  CYP3A4T Remaining %: 108.5%
[1]; Concentration 0.5 uM
  CYP3A4T Remaining %: 108.2%
[1]; Concentration 5 uM
  CYP3A4T Remaining %: 104.7%
[1]; Concentration 10 uM
  CYP3A4T Remaining %: 112.5%
[1]; Concentration 25 uM
  CYP3A4T Remaining %: 109.9%
[1]; Concentration 50 uM
  CYP3A4T Remaining %: 101.2%
  inhibitory effect on CYP3A4-T: no significant inhibitory effect
[2]; Concentration 0.25 uM
  CYP3A4M Remaining %: 105.7%
[2]; Concentration 0.5 uM
  CYP3A4M Remaining %: 105.7%
[2]; Concentration 5 uM
  CYP3A4M Remaining %: 105.0%
[2]; Concentration 10 uM
  CYP3A4M Remaining %: 97.3%
[2]; Concentration 25 uM
  CYP3A4M Remaining %: 97.2%
[2]; Concentration 50 uM
  CYP3A4M Remaining %: 84.0%
  inhibitory effect on CYP3A4-M: no significant inhibitory effect
[3]; Concentration 0.25 uM
  CYP2C8 Remaining %: 99.2%
[3]; Concentration 0.5 uM
  CYP2C8 Remaining %: 103.5%
[3]; Concentration 5 uM
  CYP2C8 Remaining %: 90.7%
[3]; Concentration 10 uM
  CYP2C8 Remaining %: 88.5%
[3]; Concentration 25 uM
  CYP2C8 Remaining %: 81.7%
[3]; Concentration 50 uM
  CYP2C8 Remaining %: 49.1%
[3]
  pIC50: ≤ 4.30
